Reference: patent US20240025893A1, “PYRIMIDINE-AND NITROGEN-CONTAINING BICYCLIC COMPOUND” (Asahi Kasei Pharma Corporation, priority 2020, published 2024)
pIC50: −log10 of the molar value.

Legend:
[1] = system: LPS-stimulated TNFα production in THP-1 cells; experiment: LPS-stimulated TNFα production inhibition test using human acute monocytic leukemia cell strain THP-1; type: cell-based; conditions: LPS 2.5 ng/mL, average values
Experimental: By the THP-1 assay, influence of a test compound on the TNFα production induced by LPS stimulation can be evaluated. The THP-1 cells (ATCC, Cat. TIB-202) were inoculated on a 96-well plate at a density of 1×10^5 cells/160 μL/well, a test compound was added in a volume of 20 μL, and the plate was incubated at 37° C. for 1 hour in a 5% CO2 incubator. Then, LPS in a volume of 20 μL (final concentration 2.5 ng/mL, Sigma, Cat. L2630) was added, and the plate was further incubated for 4 hours. After the incubation, the plate was centrifuged, and 100 μL of the supernatant was taken from each well, and used for evaluation of the amount of TNFα using HTRF (Cisbio, Cat. 62TNFPEB). In the measurement of the amount of TNFα, the supernatant was diluted twice with the medium, and then added to wells of a 384-well plate in a volume of 10 μL, then anti-TNFα-cryptate (5 μL), and anti-TNFα-XL665 (5 μL) were added, and the plate was left standing overnight. The fluorescence intensity ratio for the wavelengths of 620 and 665 nm (620 nm/665 nm) was measured with a microplate reader, and the amount of TNFα in the supernatant was calculated by using a calibration curve. The TNFα production suppression ratio observed with no addition of LPS was defined to be 100%, the TNFα production suppression ratio observed with no addition of the test compound was defined to be 0%, and IC50 of the test compound was calculated by using the 4-parameter logistic model of the data analysis software XLfit (ID Business Solutions Ltd.).

human IRAK-4 = human IRAK-4 (Homo sapiens (Human), UniProt Q9NWZ3); experiment: Measurement of human IRAK-4 inhibitory activity (TR-FRET, peptide substrate phosphorylation, 10 μM ATP); type: biochemical; conditions: 1 nM IRAK-4, 10 μM ATP, 23° C., 30 minutes; average values
Chain of human IRAK-4 (Q9NWZ3 whole entry): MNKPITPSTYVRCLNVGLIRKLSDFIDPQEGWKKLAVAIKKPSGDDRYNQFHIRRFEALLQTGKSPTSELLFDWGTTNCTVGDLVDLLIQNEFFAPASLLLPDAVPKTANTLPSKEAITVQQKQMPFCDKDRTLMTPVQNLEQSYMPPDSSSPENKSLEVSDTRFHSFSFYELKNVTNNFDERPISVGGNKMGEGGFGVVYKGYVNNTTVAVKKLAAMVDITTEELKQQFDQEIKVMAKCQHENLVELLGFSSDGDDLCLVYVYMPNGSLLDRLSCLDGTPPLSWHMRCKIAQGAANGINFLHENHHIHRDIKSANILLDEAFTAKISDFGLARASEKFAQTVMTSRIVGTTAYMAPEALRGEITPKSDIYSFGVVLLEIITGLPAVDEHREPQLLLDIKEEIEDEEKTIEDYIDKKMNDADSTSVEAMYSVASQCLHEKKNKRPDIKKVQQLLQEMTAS
Experimental: For the measurement of the activity of the human IRAK-4 (Invitrogen, Cat. PV3362), phosphorylation of the IRAK-4 peptide substrate (biotin-KKKKRFSFKKSFKC) by the enzyme in the presence of 10 μM ATP (Sigma-Aldrich, Cat. A7699) was measured by the TR-FRET method. The enzymatic reaction was performed in a reaction buffer containing 50 mM HEPES (pH 7.2), 1 mM DTT, 0.1 mM Na3VO4, 5 mM MgCl2, 1 mM MnCl2, and 0.1% bovine serum albumin. For the measurement of the IRAK-4 inhibitory activity, a test compound was added to the reaction buffer containing 1 nM IRAK-4, 0.5 μM peptide substrate, and 10 μM ATP, and the mixture was incubated at 23° C. for 30 minutes. Then, a detection solution containing an antibody labeled with europium cryptate (0.3 μg/mL, the antibody was prepared by using the IRAK-4 peptide substrate as the antigen), streptavidin-XL665 (2 μg/mL, CisBio, Cat. 610SAXLB), 50 mM HEPES (pH 7.2), 0.1% BSA, 120 mM KF, and 66.7 mM EDTA (all the concentrations of the reagents are final concentrations) was added to terminate the reaction, and then the mixture was further incubated at 23° C. for 60 minutes. Fluorescence intensity was measured at wavelengths of 665 nm and 620 nm with a microplate reader, and the enzymatic activity was calculated as the ratio of fluorescence intensities at 665 nm and 620 nm (665 nm/620 nm).

SMILES | pIC50 ([1]; Homo sapiens, THP-1, 4 h) | pIC50 (human IRAK-4) | pIC50 ([1]; 4 hours)
CC(=O)N1CCN([C@H]2C[C@@H](C(=O)Nc3cc4cc(-c5cnc(CO[C@H]6CCC[C@@H]6O)nc5)ccn4n3)C2)[C@@H](C)C1 [e-02-08] | 6.78 | 8.88 | –
O=C(Nc1nc2ccc(-c3cnc(CO[C@H]4CCC[C@@H]4O)nc3)cc2s1)C1CC(NCc2nccs2)C1 (stereo partly drawn) [b-02-86] | 6.88 | 9.10 | –
COc1ccc([C@@H]2CC2C(=O)Nc2nc3ccc(-c4cnc(CO[C@H]5CCC[C@@H]5O)nc4)cc3s2)cc1 (stereo partly drawn) [a-01-10] | 6.17 | 7.92 | –
Cc1nc(C(=O)N2CCN([C@H]3C[C@@H](C(=O)Nc4cc5cc(-c6cnc(CO[C@H]7CCC[C@@H]7O)nc6)ccn5n4)C3)[C@@H](C)C2)co1 [e-02-24] | 6.93 | 8.90 | –
C[C@H]1CN(C(=O)C2CCCO2)CCN1[C@H]1C[C@@H](C(=O)Nc2nc3ccc(-c4cnc(CO[C@H]5CCC[C@@H]5O)nc4)cc3s2)C1 (stereo partly drawn) [b-04-05] | 7.27 | 8.55 | –
COCC(=O)N1CCN([C@H]2C[C@@H](C(=O)Nc3nc4ccc(-c5cnc(CO[C@H]6CCC[C@@H]6O)nc5)c(OC)c4s3)C2)[C@@H](C)C1 [c-03-03] | 6.64 | 8.60 | –
CC(C)[C@@H]1COCCN1C1CC(C(=O)Nc2nc3ccc(-c4cnc(CO[C@H]5CCC[C@@H]5O)nc4)cc3s2)C1 (stereo partly drawn) [b-02-34] | 6.94 | 8.60 | –
O=C(Nc1nc2ccc(-c3cnc(CO[C@H]4CCC[C@@H]4O)nc3)cc2s1)C1CC(N2CCC[C@@H](F)C2)C1 (stereo partly drawn) [b-02-16] | 6.97 | 8.70 | –
O=C(Nc1nc2ccc(-c3cnc(CO[C@H]4CCC[C@@H]4O)nc3)cc2s1)C1CC(N2CCC(F)CC2)C1 (stereo partly drawn) [b-02-11] | 6.82 | 8.54 | –
O=C(Nc1nc2ccc(-c3cnc(CO[C@H]4CCC[C@@H]4O)nc3)cc2s1)C1CC(N2CC[C@@H](OC(F)F)C2)C1 (stereo partly drawn) [b-02-62] | 6.85 | 8.86 | –
COC[C@@H]1CCN(C2CC(C(=O)Nc3nc4ccc(-c5cnc(CO[C@H]6CCC[C@@H]6O)nc5)cc4s3)C2)C1 (stereo partly drawn) [b-02-39] | 6.74 | 8.72 | –
C[C@H]1CN(C(=O)c2ccc(C(F)(F)F)cn2)CCN1[C@H]1C[C@@H](C(=O)Nc2nc3ccc(-c4cnc(CO[C@H]5CCC[C@@H]5O)nc4)cc3s2)C1 [b-04-14] | 7.60 | 8.82 | –
O=C(Nc1nc2ccc(-c3cnc(CO[C@H]4CCC[C@@H]4O)nc3)cc2s1)C1CC2(COC2)C1 [d-01-07] | 6.74 | 8.76 | –
O=C(Nc1nc2ccc(-c3cnc(CO[C@H]4CCC[C@@H]4O)nc3)cc2s1)C1CC(N2CCN(C3CC3)CC2)C1 (stereo partly drawn) [b-02-28] | 6.99 | 8.66 | –
C[C@H]1CN(C(=O)c2ccc(Cl)cn2)CCN1[C@H]1C[C@@H](C(=O)Nc2nc3ccc(-c4cnc(CO[C@H]5CCC[C@@H]5O)nc4)cc3s2)C1 [b-04-37] | 7.46 | 9.09 | –
C[C@@H]1C[C@H]1C(=O)Nc1cc2cc(-c3cnc(CO[C@H]4CCC[C@@H]4O)nc3)ccn2n1 [e-01-03] | 6.77 | 8.99 | –
C[C@H]1CN(C(=O)c2ccncc2)CCN1[C@H]1C[C@@H](C(=O)Nc2nc3ccc(-c4cnc(CO[C@H]5CCC[C@@H]5O)nc4)cc3s2)C1 [b-04-13] | 7.57 | 8.77 | –
CCC(=O)N1CCN([C@H]2C[C@@H](C(=O)Nc3nc4ccc(-c5cnc(CO[C@H]6CCC[C@@H]6O)nc5)cc4s3)C2)[C@@H](C)C1 [b-05-05] | 7.30 | 8.71 | –

SMILES | pIC50 ([1]; Homo sapiens, THP-1, 4 h) | pIC50 (human IRAK-4) | pIC50 ([1]; 4 hours)
O=C(Nc1nc2ccc(-c3cnc(CO[C@H]4CCC[C@@H]4O)nc3)cc2s1)C1CC(N2CCOC(C3CC3)C2)C1 (stereo partly drawn) [b-02-30] | 6.86 | 8.39 | –
O=C(Nc1nc2ccc(-c3cnc(CO[C@H]4CCC[C@@H]4O)nc3)cc2s1)C1CC(N2CCOC3(CCCC3)C2)C1 (stereo partly drawn) [b-02-81] | 6.69 | 8.44 | –
C[C@H]1CN(C(=O)c2ccnc(C(F)(F)F)c2)CCN1[C@H]1C[C@@H](C(=O)Nc2nc3ccc(-c4cnc(CO[C@H]5CCC[C@@H]5O)nc4)cc3s2)C1 [b-04-35] | 7.43 | 8.68 | –
O=C(Nc1nc2ccc(-c3cnc(CO[C@H]4CCC[C@@H]4O)nc3)cc2s1)C1CC(N2CC(F)C2)C1 (stereo partly drawn) [b-01-02] | – | 8.48 | 6.75
CC(C)[C@H]1COCCN1[C@H]1C[C@@H](C(=O)Nc2cc3cc(-c4cnc(CO[C@H]5CCC[C@@H]5O)nc4)ccn3n2)C1 [e-02-11] | 7.02 | 8.98 | –
O=C(Nc1nc2ccc(-c3cnc(COC[C@@H]4CCCO4)nc3)cc2s1)C1CC1 [a-05-01] | 6.52 | 8.11 | –
C[C@]1(O)C[C@@H](C(=O)Nc2nc3ccc(-c4cnc(CO[C@H]5CCC[C@@H]5O)nc4)cc3s2)C1 [d-01-02] | 6.78 | 8.56 | –
CN(C1CC(C(=O)Nc2nc3ccc(-c4cnc(CO[C@H]5CCC[C@@H]5O)nc4)cc3s2)C1)C1(C(F)F)CC1 (stereo partly drawn) [b-03-05] | 6.97 | 8.53 | –
O=C(Nc1nc2ccc(-c3cnc(CO[C@H]4CCC[C@@H]4O)nc3)cc2s1)C1CC(N2CC[C@H](F)C2)C1 (stereo partly drawn) [b-02-02] | 6.71 | 8.55 | –
O=C(Nc1nc2ccc(-c3cnc(CO[C@H]4CCC[C@@H]4O)nc3)cc2s1)C1CC(N2CCC[C@H](F)C2)C1 (stereo partly drawn) [b-02-17] | 6.92 | 8.80 | –
CCO[C@H]1C[C@@H](C(=O)Nc2nc3ccc(-c4cnc(CO[C@H]5CCC[C@@H]5O)nc4)cc3s2)C1 [d-04-01, (1s,3s)-3-Ethoxy-N-(6-(2-((((1S,2S)-2-hydroxycyclopentyl)oxy)methyl)pyrimidin-5-yl)benzo[d]thiazol-2-yl)cyclobutane-1-carboxamide] | 6.74 | 8.68 | –
O=C(Nc1nc2ccc(-c3cnc(CO[C@H]4CCC[C@@H]4O)nc3)cc2s1)C1CC(NC2C3CC2C3)C1 (stereo partly drawn) [b-02-76] | 7.00 | 8.81 | –
CCCOCc1ncc(-c2ccc3nc(NC(=O)[C@H]4C[C@@H](N5CCN(C(=O)c6cc(F)ccn6)C[C@@H]5C)C4)sc3c2)cn1 [b-04-41] | 7.12 | 9.16 | –
CC(C)[C@@H]1[C@H](O)CCCN1C1CC(C(=O)Nc2nc3ccc(-c4cnc(CO[C@H]5CCC[C@@H]5O)nc4)cc3s2)C1 (stereo partly drawn) [b-02-85] | 6.90 | 8.73 | –
C[C@H]1CN(C(=O)c2cccnc2)CCN1[C@H]1C[C@@H](C(=O)Nc2cc3cc(-c4cnc(CO[C@H]5CCC[C@@H]5O)nc4)ccn3n2)C1 [e-02-02] | 6.91 | 8.86 | –
Cc1nc(C)c(C(=O)N2CCN([C@H]3C[C@@H](C(=O)Nc4nc5ccc(-c6cnc(CO[C@H]7CCC[C@@H]7O)nc6)cc5s4)C3)[C@@H](C)C2)s1 [b-04-32] | 7.30 | 8.80 | –
O=C(Nc1nc2ccc(-c3cnc(CO[C@H]4CCC[C@@H]4O)nc3)cc2s1)C1CC(N2CCOCC(F)(F)C2)C1 (stereo partly drawn) [b-02-35] | 6.85 | 8.60 | –
COc1c(-c2cnc(CO[C@H]3CCC[C@@H]3O)nc2)ccc2nc(NC(=O)[C@H]3C[C@H]3F)sc12 [c-02-04] | 6.58 | 8.47 | –
